Measured values published in PubChem BioAssay (NCI).
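Following 48 hours of exposure in 96-well plates, responses at five concentrations were used to interpolate endpoints linearly. Abbreviation: GI50, concentration required for 50% inhibition of growth. TGI denotes the concentration required for complete inhibition of growth.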

How the values were obtained:
Test in all cases: NCI tumour cell line growth inhibition, 48 h
COLO 205 colon = test system: COLO 205 colon
HCC-2998 colon = test system: HCC-2998 colon
HOP-62 NSCLC = test system: HOP-62 NSCLC
NCI-H460 lung = test system: NCI-H460 lung
OVCAR-5 ovarian = test system: OVCAR-5 ovarian
SF-295 CNS = test system: SF-295 CNS
SNB-19 CNS = test system: SNB-19 CNS
SNB-75 CNS = test system: SNB-75 CNS
TK-10 renal = test system: TK-10 renal
UACC-62 melanoma = test system: UACC-62 melanoma
A498 renal = test system: A498 renal
DU-145 prostate = test system: DU-145 prostate

| Structure (SMILES) | TGI (COLO 205 colon) [µM] | TGI (HCC-2998 colon) [µM] | TGI (HOP-62 NSCLC) [µM] | TGI (NCI-H460 lung) [µM] | TGI (OVCAR-5 ovarian) [µM] | TGI (SF-295 CNS) [µM] | TGI (SNB-19 CNS) [µM] | TGI (SNB-75 CNS) [µM] | TGI (TK-10 renal) [µM] | TGI (UACC-62 melanoma) [µM] | TGI (A498 renal) [µM] | TGI (DU-145 prostate) [µM] | GI50 (DU-145 prostate) [µM] | GI50 (OVCAR-5 ovarian) [µM] | GI50 (SF-295 CNS) [µM] | GI50 (SNB-75 CNS) [µM] | GI50 (TK-10 renal) [µM] |
| --- | --- | --- | --- | --- | --- | --- | --- | --- | --- | --- | --- | --- | --- | --- | --- | --- | --- |
| Cc1cccc2c1Oc1cc(Cl)ccc1C2NC(=O)CCN1CCCCC1 (stereo unspecified) | 34.6 | 28.3 | 28.3 | 31.6 | 31.9 | 33.1 | 33 | 28.1 | 30 | 30 | – | – | – | – | – | – | – |
| NS(=O)(=O)c1nnc(NC(=O)CCC(=O)O)s1 | > 100 | > 100 | > 100 | > 100 | > 100 | > 100 | > 100 | – | > 100 | > 100 | > 100 | > 100 | – | – | – | – | – |
| NC(=O)c1cnc2sc3ccccc3n2c1=O | > 100 | > 100 | > 100 | > 100 | > 100 | > 100 | > 100 | > 100 | > 100 | > 100 | – | > 100 | – | – | – | – | – |
| Cc1nn2c(N)cc(=O)nc2nc1/C=C/c1ccc(N(C)C)cc1 | > 100 | 23.3 | > 100 | > 100 | > 100 | > 100 | > 100 | – | > 100 | > 100 | – | > 100 | – | – | – | – | – |
| CSc1ccc2c(c1)c(CCN)c(C)n2Cc1ccc(Cl)c(Cl)c1 | – | – | – | – | 3.13 | 3.22 | – | 2.6 | 2.95 | – | – | 3.21 | 1.73 | 1.51 | 1.69 | 1.32 | 1.51 |
| NS(=O)(=O)c1ccc(NNC(=O)c2cccc3c(=O)c4ccccc4[nH]c23)cc1 | > 100 | > 100 | > 100 | > 100 | > 100 | > 100 | > 100 | > 100 | > 100 | > 100 | – | > 100 | – | – | – | – | – |
| c1ccc(Cc2cccc3cc(-c4ccc(-c5ccccc5)cc4)[nH]c23)cc1 | > 100 | > 100 | > 100 | > 100 | > 100 | > 100 | > 100 | > 100 | > 100 | > 100 | – | > 100 | – | – | – | – | – |
| O=C(N/N=C(/COc1cccc(Cl)c1)N=Cc1ccncc1)c1ccncc1 | > 100 | > 100 | > 100 | > 100 | > 100 | > 100 | > 100 | – | > 100 | > 100 | > 100 | > 100 | – | – | – | – | – |
| Clc1cc2nc(C3CCCO3)[nH]c2cc1Cl (stereo unspecified) | > 100 | > 100 | > 100 | – | > 100 | > 100 | > 100 | > 100 | > 100 | > 100 | – | – | – | – | – | – | – |
| NCCCNCCSSCc1ccccc1CSSCCNCCCN | > 100 | > 100 | > 100 | > 100 | > 100 | > 100 | > 100 | 70 | > 100 | > 100 | > 100 | – | – | – | – | – | – |
| CSC1=N/C(=C\c2cccs2)C(=O)N1CN1CCOCC1 | > 100 | – | > 100 | – | > 100 | > 100 | > 100 | > 100 | > 100 | > 100 | > 100 | > 100 | – | – | – | – | – |
| N#CC12COC3(CCCCC3C1(C#N)C#N)OC2=N (stereo unspecified) | 19.2 | – | – | 29.4 | 30.4 | 43.1 | 36 | 35.2 | 31.6 | 33.9 | 39.3 | 28.7 | – | – | – | – | – |
| O=C(NC(=O)c1cn(CCN2CCNCC2)c(=O)[nH]c1=O)OCc1ccccc1 | > 100 | – | > 100 | > 100 | > 100 | > 100 | – | > 100 | – | > 100 | – | – | – | – | – | – | – |
| O=C1C(NS(=O)(=O)c2ccccc2)=C(n2cnc3ccccc32)C(=O)c2ccccc21 | > 100 | > 100 | > 100 | > 100 | > 100 | > 100 | > 100 | 85 | > 100 | > 100 | – | > 100 | – | – | – | – | – |
| CCCS(=O)(=O)O | > 100 | – | > 100 | > 100 | > 100 | > 100 | > 100 | > 100 | > 100 | > 100 | > 100 | > 100 | – | – | – | – | – |
| CN(Cc1cnc2nc(N)nc(N)c2n1)c1ccc(C(=O)NC(CCS(=O)(=O)O)C(=O)O)cc1 (stereo unspecified) | > 100 | > 100 | > 100 | > 31.6 | – | > 100 | > 100 | > 100 | > 100 | > 100 | > 100 | – | – | – | – | 96 | – |
| C=CCN1CCC(OC(=O)C(O)(/C=C\CC)C2CCCC2)CC1 (stereo unspecified) | > 100 | – | > 100 | – | > 100 | > 100 | > 100 | > 100 | > 100 | > 100 | > 100 | > 100 | – | – | – | – | – |
| O=c1oc2ncccc2n1Cc1ccc([N+](=O)[O-])cc1 | > 100 | – | > 100 | > 100 | > 100 | > 100 | – | > 100 | > 100 | > 100 | > 100 | > 100 | – | – | – | – | – |
| Cc1ccc2nc3c(C(=O)NCCN(C)C)cccc3cc2c1 | 3.25 | 14.8 | 7.05 | 2.36 | 5.64 | 7.14 | 6.34 | 8.26 | – | 6.77 | 3.4 | – | – | – | – | – | – |
| CCN(CC)CCNc1ccc([N+](=O)[O-])c2nc3ccccc3c(N)c12 | 1.47 | – | > 10 | 1.24 | 5.26 | 1.75 | – | 2.39 | > 10 | 4.07 | 2.91 | > 10 | – | – | – | – | – |
| O=C(Nc1ccc(Cl)cc1)c1cc(S(=O)(=O)Nc2n[nH]c(=O)[nH]2)c(SSc2cc(Cl)c(C(=O)Nc3ccc(Cl)cc3)cc2S(=O)(=O)Nc2n[nH]c(=O)[nH]2)cc1Cl | > 100 | > 100 | > 100 | > 100 | > 100 | > 100 | > 100 | > 100 | > 100 | > 100 | > 100 | – | – | – | – | – | – |
